Earlier results as cited in patent US20220183969A1, “OCULAR INSERT CONTAINING A GLUCOCORTICOID” (Ocular Therapeutix, Inc., priority 2020, published 2022).

Settings: for Equivalent Dose: established equivalent oral dose; for Relative Potency: oral glucocorticoid potency with reference to cortisol

| SMILES | Equivalent Dose | Relative Potency |
| --- | --- | --- |
| C[C@]12C=CC(=O)C=C1CC[C@@H]1[C@@H]2[C@@H](O)C[C@@]2(C)[C@H]1CC[C@]2(O)C(=O)CO [Prednisolone] | 5 mg | 4 |
| C[C@@H]1C[C@H]2[C@@H]3CCC4=CC(=O)C=C[C@]4(C)[C@@]3(F)[C@@H](O)C[C@]2(C)[C@@]1(O)C(=O)CO [Dexamethasone, 9-Fluor-11β,17,21-trihydroxy-16α-methyl-pregna-1,4-dien-3,20-dion] | 0.8 mg | 25-80 |
| C[C@]12C=CC(=O)C=C1CC[C@H]1[C@@H]3C[C@@H](O)[C@](O)(C(=O)CO)[C@@]3(C)C[C@H](O)[C@@]12F [Triamcinolone] | 4 mg | 5 |
| C[C@]12CCC(=O)C=C1CC[C@@H]1[C@@H]2[C@@H](O)C[C@@]2(C)[C@H]1CC[C@]2(O)C(=O)CO [Cortisol] | 20 mg | 1 |
